“Also recorded” adds a separate entry of the source. Where two headings read alike, the source gives them in different places.
What was measured:
Format in all cases: in vivo, human
[1] = tested on: opioid-dependent participants; experiment: Time to resumption of opioid substitution treatment (OST) in opioid-dependent participants
Protocol: (§1) The efficacy of noribogaine in humans was evaluated in opioid-dependent participants in a randomized, placebo-controlled, double-blind trial. […] See U.S. application Ser. No. 14/214,157, filed Mar. 14, 2014 and Ser. No. 14/346,655, filed Mar. 21, 2014, which are incorporated herein by reference in their entireties.
(§2) Three cohorts of nine (9) subjects (6 administered noribogaine and 3 administered placebo in each cohort) were evaluated for tolerability, pharmacokinetics, and efficacy. Cohort 1 received a single dose of 60 mg noribogaine or placebo. Cohort 2 received a single dose of 120 mg noribogaine or placebo. Cohort 3 received a single dose of 180 mg noribogaine or placebo. […] Headaches were frequent in the placebo and 60 mg noribogaine treatment groups, but were attenuated in the 120 mg and 180 mg dose groups.

[2] = tested on: healthy, drug-free male volunteers; experiment: Safety and tolerability of noribogaine in healthy humans (adverse events, vital signs, ECG)
Protocol: Pulse oximetry and capnography data were collected continuously using a GE Carescape B650 monitoring system from 2 hours prior to dosing and until six hours after dosing, and thereafter at 12, 24, 48 and 72 hours post-dosing. […] Pupillary miosis was assessed by pupillometry.
Safety and tolerability of noribogaine were tested in the group of volunteers from Example 1. […] Safety evaluations included clinical monitoring, recording of adverse events (AEs), safety laboratory tests, vital signs, ECG telemetry from −2 h to 6 h after dosing, and 12-lead electrocardiograms (ECGs) up to 216 hours post-dosing.

[3] = tested on: opioid-dependent participants; experiment: Treatment emergent adverse events in opioid-dependent participants (randomized, placebo-controlled, double-blind trial)
Protocol: as §1, §2

[4] = Pharmacokinetics in opioid-dependent patients (Phase IB study); details: for AUC(0-t) / AUC / half-life / Tmax / Vd/F / Cmax: human, serum, opioid-dependent patients
Protocol: as §2

[5] = opioid-dependent patients, 60, 120 or 180 mg single dose
[6] = opioid-dependent patients, single 60 mg dose, N = 6
[7] = opioid-dependent patients, single 120 mg dose, N = 6
[8] = opioid-dependent patients, single 180 mg dose, N = 6

Q: Which results are given for `CCC1CC2CC3c4[nH]c5ccc(O)cc5c4CCN(C2)C13` (stereo not shown) [Noribogaine]?
A: average time to resumption of opioids ([1]; opioid-dependent patients, single 120 mg dose): greater than 20 hours; Time to resumption of OST compared with untreated patients or 60 mg noribogaine ([1]; single 180 mg dose): longer than untreated patients; adverse events, Mild ([2]; healthy volunteers, 3 mg dose): Back pain; also recorded: Dizziness; also recorded: Epistaxis; also recorded: Headache; adverse events, Moderate ([2]; healthy volunteers, 3 mg dose): Headache; number of adverse events reported ([2]; healthy volunteers, 3 mg dose group): five adverse events were reported by two subjects; adverse events, Mild ([2]; healthy volunteers, 10 mg dose): Headache; number of adverse events reported ([2]; healthy volunteers, 10 mg dose group, single subject): one adverse event; adverse events, Mild ([2]; healthy volunteers, 30 mg dose): Headache; number of adverse events reported ([2]; healthy volunteers, 30 mg dose group, single subject): one adverse event; oximetry, capnography, respiratory rate ([2]; healthy volunteers, 3-60 mg): no changes in oximetry or capnography, or changes in respiratory rate; vital signs and safety laboratory tests ([2]; healthy volunteers, 3-60 mg): no changes in vital signs or safety laboratory tests of note; intensity of adverse events ([2]; healthy volunteers, all groups, all resolved prior to study completion): mild-moderate intensity; QTcF values ([2]; healthy volunteers, at any time): ≤ 500 ms; single increase in QTcF ([2]; one subject dosed with 10 mg, at 24 hours post-dosing): > 60 ms; Headaches ([3]; opioid-dependent patients, 60 mg treatment group): frequent; Headaches ([3]; opioid-dependent patients, 120 mg dose group): attenuated; Headaches ([3]; opioid-dependent patients, 180 mg dose group): attenuated; adverse effects of noribogaine observed [3, 5]: Few adverse effects; hallucinatory effects [3, 5]: no hallucinatory effects; Treatment Emergent Adverse Events: Catheter Site Infection [3, 6]: 0; Treatment Emergent Adverse Events: Catheter Site Pain [3, 6]: 0; Treatment Emergent Adverse Events: Catheter Site Related Reaction [3, 6]: 0; Treatment Emergent Adverse Events: Cellulitis [3, 6]: 0; Treatment Emergent Adverse Events: Diarrhoea [3, 6]: 0; Treatment Emergent Adverse Events: Dry Mouth [3, 6]: 0; Treatment Emergent Adverse Events: Ear and Labyrinth Disorders [3, 6]: 0; Treatment Emergent Adverse Events: Epistaxis [3, 6]: 0; Treatment Emergent Adverse Events: Euphoric Mood [3, 6]: 0; Treatment Emergent Adverse Events: General Disorders and Administration Site Conditions [3, 6]: 0; Treatment Emergent Adverse Events: Hyperaesthesia [3, 6]: 0; Treatment Emergent Adverse Events: Infections and Infestations [3, 6]: 0; Treatment Emergent Adverse Events: Limb Discomfort [3, 6]: 0; Treatment Emergent Adverse Events: Malaise [3, 6]: 0; Treatment Emergent Adverse Events: Nausea [3, 6]: 0; Treatment Emergent Adverse Events: Oropharyngeal Pain [3, 6]: 0; Treatment Emergent Adverse Events: Pseudoparalysis [3, 6]: 0; Treatment Emergent Adverse Events: Respiratory, Thoracic and Mediastinal Disorders [3, 6]: 0; Treatment Emergent Adverse Events: Rhinorrhoea [3, 6]: 0; Treatment Emergent Adverse Events: Skin Discomfort [3, 6]: 0; Treatment Emergent Adverse Events: Skin Irritation [3, 6]: 0; Treatment Emergent Adverse Events: Skin and Subcutaneous Tissue Disorders [3, 6]: 0; Treatment Emergent Adverse Events: Somnoience [3, 6]: 0; Treatment Emergent Adverse Events: Tinnitus [3, 6]: 0; Treatment Emergent Adverse Events: Tremor [3, 6]: 0; Treatment Emergent Adverse Events: Urinary Tract Infection [3, 6]: 0; Treatment Emergent Adverse Events: Vomiting [3, 6]: 0; Treatment Emergent Adverse Events: Back Pain [3, 7]: 0; Treatment Emergent Adverse Events: Catheter Site Infection [3, 7]: 0; Treatment Emergent Adverse Events: Catheter Site Related Reaction [3, 7]: 0; Treatment Emergent Adverse Events: Depressed Mood [3, 7]: 0; Treatment Emergent Adverse Events: Dry Eye [3, 7]: 0; Treatment Emergent Adverse Events: Dyspepsia [3, 7]: 0; Treatment Emergent Adverse Events: Euphoric Mood [3, 7]: 0; Treatment Emergent Adverse Events: Limb Discomfort [3, 7]: 0; Treatment Emergent Adverse Events: Malaise [3, 7]: 0; Treatment Emergent Adverse Events: Musculoskeletal and Connective Tissue Disorders [3, 7]: 0; Treatment Emergent Adverse Events: Psychiatric Disorders [3, 7]: 0; Treatment Emergent Adverse Events: Somnoience [3, 7]: 0; Treatment Emergent Adverse Events: Urinary Tract Infection [3, 7]: 0; Treatment Emergent Adverse Events: Catheter Site Infection [3, 8]: 0; Treatment Emergent Adverse Events: Catheter Site Pain [3, 8]: 0; Treatment Emergent Adverse Events: Depressed Mood [3, 8]: 0; Treatment Emergent Adverse Events: Diarrhoea [3, 8]: 0; Treatment Emergent Adverse Events: Dry Eye [3, 8]: 0; Treatment Emergent Adverse Events: Dyspepsia [3, 8]: 0; Treatment Emergent Adverse Events: Ear and Labyrinth Disorders [3, 8]: 0; Treatment Emergent Adverse Events: Epistaxis [3, 8]: 0; Treatment Emergent Adverse Events: Euphoric Mood [3, 8]: 0; Treatment Emergent Adverse Events: Hyperaesthesia [3, 8]: 0; Treatment Emergent Adverse Events: Malaise [3, 8]: 0; Treatment Emergent Adverse Events: Oropharyngeal Pain [3, 8]: 0; Treatment Emergent Adverse Events: Pseudoparalysis [3, 8]: 0; Treatment Emergent Adverse Events: Psychiatric Disorders [3, 8]: 0; Treatment Emergent Adverse Events: Respiratory, Thoracic and Mediastinal Disorders [3, 8]: 0; Treatment Emergent Adverse Events: Rhinorrhoea [3, 8]: 0; Treatment Emergent Adverse Events: Skin Discomfort [3, 8]: 0; Treatment Emergent Adverse Events: Skin Irritation [3, 8]: 0; Treatment Emergent Adverse Events: Skin and Subcutaneous Tissue Disorders [3, 8]: 0; Treatment Emergent Adverse Events: Somnoience [3, 8]: 0; Treatment Emergent Adverse Events: Tinnitus [3, 8]: 0; Treatment Emergent Adverse Events: Tremor [3, 8]: 0; AUC(0-t) ([4]; 60 mg, Cohort 1 (60 mg), mean ± SD, read-out: AUC(0-T)): 2020 ± 614 ng·h/mL; AUC ([4]; 60 mg, Cohort 1 (60 mg), mean ± SD, read-out: AUC(0-¥)): 2060 ± 609 ng·h/mL; half-life ([4]; 60 mg, Cohort 1 (60 mg), mean ± SD, read-out: Half-life (converted)): 29.3 ± 7.28 h; Tmax ([4]; 60 mg, Cohort 1 (60 mg), mean ± SD, read-out: Tmax): 3.59 ± 0.92 h; Vd/F ([4]; 60 mg, Cohort 1 (60 mg), mean ± SD, read-out: Vd/F): 1440 ± 854 L; AUC(0-t) ([4]; 60 mg, Cohort 1 (60 mg), range, read-out: AUC(0-T) [range]): 1090 to 2530 ng·h/mL; AUC ([4]; 60 mg, Cohort 1 (60 mg), range, read-out: AUC(0-¥) [range]): 1120 to 2550 ng·h/mL; half-life ([4]; 60 mg, Cohort 1 (60 mg), range, read-out: Half-life [range]): 18.3 to 37.3 h; Tmax ([4]; 60 mg, Cohort 1 (60 mg), range, read-out: Tmax [range]): 2.5 to 5 h; Vd/F ([4]; 60 mg, Cohort 1 (60 mg), range, read-out: Vd/F [range]): 620 to 2770 L; Cmax ([4]; 60 mg, Cohort 1 (60 mg), mean ± SD, read-out: Cmax): 81.6 ± 23.8 ng/mL; Cmax ([4]; 60 mg, Cohort 1 (60 mg), range, read-out: Cmax [range]): 41.3 to 113 ng/mL; AUC(0-t) ([4]; 120 mg, Cohort 2 (120 mg), mean ± SD, read-out: AUC(0-T)): 3230 ± 1540 ng·h/mL; AUC ([4]; 120 mg, Cohort 2 (120 mg), mean ± SD, read-out: AUC(0-¥)): 3280 ± 1580 ng·h/mL; half-life ([4]; 120 mg, Cohort 2 (120 mg), mean ± SD, read-out: Half-life (converted)): 30.4 ± 9.14 h; Tmax ([4]; 120 mg, Cohort 2 (120 mg), mean ± SD, read-out: Tmax): 2.99 ± 1.23 h; Vd/F ([4]; 120 mg, Cohort 2 (120 mg), mean ± SD, read-out: Vd/F): 2110 ± 1640 L; AUC(0-t) ([4]; 120 mg, Cohort 2 (120 mg), range, read-out: AUC(0-T) [range]): 1560 to 5640 ng·h/mL; AUC ([4]; 120 mg, Cohort 2 (120 mg), range, read-out: AUC(0-¥) [range]): 1600 to 5770 ng·h/mL; half-life ([4]; 120 mg, Cohort 2 (120 mg), range, read-out: Half-life [range]): 21.9 to 48.3 h; Tmax ([4]; 120 mg, Cohort 2 (120 mg), range, read-out: Tmax [range]): 0.98 to 4.02 h; Vd/F ([4]; 120 mg, Cohort 2 (120 mg), range, read-out: Vd/F [range]): 824 to 5240 L; Cmax ([4]; 120 mg, Cohort 2 (120 mg), mean ± SD, read-out: Cmax): 173 ± 30.7 ng/mL; Cmax ([4]; 120 mg, Cohort 2 (120 mg), range, read-out: Cmax [range]): 139 to 230 ng/mL; AUC(0-t) ([4]; 180 mg, Cohort 3 (180 mg), mean ± SD, read-out: AUC(0-T)): 6520 ± 2910 ng·h/mL; AUC ([4]; 180 mg, Cohort 3 (180 mg), mean ± SD, read-out: AUC(0-¥)): 6890 ± 3490 ng·h/mL; half-life ([4]; 180 mg, Cohort 3 (180 mg), mean ± SD, read-out: Half-life (converted)): 23.9 ± 5.54 h; Tmax ([4]; 180 mg, Cohort 3 (180 mg), mean ± SD, read-out: Tmax): 4.41 ± 1.8 h; Vd/F ([4]; 180 mg, Cohort 3 (180 mg), mean ± SD, read-out: Vd/F): 1030 ± 365 L; AUC(0-t) ([4]; 180 mg, Cohort 3 (180 mg), range, read-out: AUC(0-T) [range]): 3720 to 10400 ng·h/mL; AUC ([4]; 180 mg, Cohort 3 (180 mg), range, read-out: AUC(0-¥) [range]): 3730 to 12300 ng·h/mL; half-life ([4]; 180 mg, Cohort 3 (180 mg), range, read-out: Half-life [range]): 19.3 to 34.9 h; Tmax ([4]; 180 mg, Cohort 3 (180 mg), range, read-out: Tmax [range]): 3 to 8 h; Vd/F ([4]; 180 mg, Cohort 3 (180 mg), range, read-out: Vd/F [range]): 581 to 1610 L; Cmax ([4]; 180 mg, Cohort 3 (180 mg), mean ± SD, read-out: Cmax): 268 ± 46.9 ng/mL; Cmax ([4]; 180 mg, Cohort 3 (180 mg), range, read-out: Cmax [range]): 205 to 338 ng/mL; Maximum serum concentration of noribogaine (Cmax) versus dose ([4]; opioid-dependent patients, 60, 120, 180 mg): increased in a dose-dependent manner
